Data on three molecules can be found in US20230146038A1, “DIMERIZATION ASSAY” (The University of Bath, priority 2020, published 2023).

For one data set, the system named is BL21 GOLD cells. Briefly: Aβ1-42 dimerization assay (colony growth). The format is cell-based, E. coli. Particulars: for colonies grown on test plates: M9 minimal media with Tmp and IPTG; for colonies grown on negative control plates: M9 minimal media with Tmp; for No. of colonies (CFU): 48-hour incubation. From the text: Schematic illustrating general principles of using the TBS assay to screen for inhibitors of the initial dimerization event of Aβ1-42. In bacterial cells, endogenous DHFR can be inhibited using the antibiotic trimethoprim, making cells reliant on the modified, exogenous DHFR (top panel). In this setting, if AP-1 binds to the TRE sites in the DHFR, transcription is blocked and no functional DHFR enzyme is produced, resulting in cell death (middle panel). By attaching this basic cJun region to Aβ1-42, a functional DNA binder will be created if two Aβ1-42 peptides dimerize. In the absence of an inhibitor, basic-Aβ1-42 dimerization would lead to blocking of the DHFR gene transcription, resulting in cell death (lower left hand panel). Only cells treated with a successful Aβ1-42 dimerization inhibitor would produce DHFR and so survive, allowing selection for potential therapeutics for treating Alzheimer's Disease (lower right hand panel).
BL21 GOLD cells stably expressing a pREP4 plasmid containing lac inhibitor […] gene were used for the dimerization assay, so that the lac operon could be controlled. Cells were transformed with p300d plasmid containing DHFR with 15 TRE sites under control of the lac operon (described in Example 1), and either a p230d containing Aβ1-42 or constructed basic-Aβ1-42.
BL21 from the 100 μL plates were scraped into LB and selecting antibiotics and grown to an OD600 of 0.5. 100 μL of culture was plated onto positive control, negative control and test plates, as described in Table 3 below.
A covering of cells was seen on both positive control plates, showing that BL21 cells were not affected by scraping and re-plating. Tmp was used to inhibit the endogenous, E. coli DHFR enzyme. […] Two basic-Aβ1-42 expressing colonies and one Aβ1-42 colony grew on these negative control plates. Test plates contained IPTG to bind to lac repressor protein and allow expression of the modified DHFR in the bacteria. There were 63 Aβ1-42 expressing BL21 colonies formed on these plates, which confirmed that the modified DHFR gene allows cells to grow on minimal media. Importantly, only 2 basic-Aβ1-42 expressing colonies grew on test plates, which was consistent with levels of background growth seen on negative control plates.

Data set [1] has as its system TRE's introduced within the mDHFR gene. Nature of the data set: Transcription-Block Survival (TBS) assay with basic-cJun. Particulars: M9 minimal media with Tmp and IPTG, protein overexpressed on second plasmid with mDHFR containing 15 TREs. The data set is classed as cell-based, E. coli. The source says:
Fifteen TREs have been introduced into the mDHFR gene. A) The changes to the DNA sequence result in a fully active protein that expresses, folds, and confers survival in M9 minimal media using trimethoprim (TMP) to inhibit bacterial DHFR. […] Expressing mDHFR with IPTG (right hand side plates), generates colonies in A) but not B).
It was next necessary to establish that introduction of an AP-1 component (in this case basic-cJun) would result in binding to the 15 TRE's introduced within the mDHFR gene and therefore failure of the gene to be transcribed.
Three plasmids were used for this assay. These are i) p300-mDHFR (Cm; SEQ ID NO: 42) to express the […] sequence containing mDHFR, which is under control of the lac-operon; ii) p230d-basic-cJun (Amp; SEQ ID NO: 43) which is also under control of the lac-operon; iii) pREP4 (Kan; SEQ ID NO: 44) to express the lac repressor.
Cells were grown under non-selective conditions (i.e. LB/LB agar) containing Cm/Amp/Kan up until the time of the Assay. During TBS Selection Cells are grown in M9 minimal media (Agar or Broth) in the presence of Cm/Amp/Kan, as well as Tmp (to inhibit the bacterial copies of DHFR) and IPTG (to induce expression of mDHFR and bZIP proteins). […]

Data set [2] concerns the molecule itself. Nature of the data set: TBS cell survival assay in E. coli, colony formation on M9 agar.
Protocol: Cells were grown under non-selective conditions (i.e. LB/LB agar) containing Cm/Amp/Kan up until the time of the Assay. During TBS Selection Cells are grown in M9 minimal media (Agar or Broth) in the presence of Cm/Amp/Kan, as well as Tmp (to inhibit the bacterial copies of DHFR) and IPTG (to induce expression of mDHFR and bZIP proteins). During Assay selection, media-lacking ITPG is used to serve as a negative control to ensure that cell survival is exclusively driven by the loss on interaction between bZIP target protein and the consensus sequences located within the mDHFR gene.
[3] abbreviates: Negative control plate: M9 minimal agar, 3.4 μM Tmp, no IPTG.
Where [4] appears, read: Positive control plate: LB agar, Cm, Kan and Amp.
Setting [5] is: Test plate: M9 minimal agar, 3.4 μM Tmp, 1 mM IPTG.

Take “Aβ1-42: amyloid-β peptide having 42 amino acids (SEQ ID NO: 49), expressed without the basic cJun region [reference compound]”: in the data set with BL21 GOLD cells, the “colonies grown on test plates” value turned out to be 63 colonies. In the data set on BL21 GOLD cells (no IPTG), the “colonies grown on negative control plates” value was “one”. For the same molecule, the “No. of colonies (CFU)” value was 1 CFU in the data set with BL21 GOLD cells (setting [3]), “Covered” in the data set with BL21 GOLD cells (setting [4]) and 63 CFU in the data set with BL21 GOLD cells (setting [5]).
The matching figures for “basic-Aβ1-42: fusion protein of the basic cJun region and Aβ1-42 (SEQ ID NO: 51)”: 2 colonies, “Two”, 2 CFU, “Covered” and 2 CFU.

B1: basic-cJun (other)
chain: MRIKAERKRMRNRIAASKCRKRKLERIARLEEKVKTLKAQNYELASTANMLREQVAQLGAPHHHHHH
notes: also called AP-1 component; p230d-basic-cJun
As for B1, the “bacterial colony formation in minimal media” value was “complete loss of bacterial colonies” in data set [1] and “no colonies grow” in data set [1] (listed as Basic-cJun). The binding result in data set [2] is “binds”.
